We go through 14 compounds from patent US20230084144A1, “THERAPEUTIC COMBINATIONS OF DRUGS AND METHODS OF USING THEM” (ConSynance Therapeutics, Inc., priority 2020, published 2023).

One may read the Kd as the equilibrium constant for the complex coming apart. As usually defined, the inhibition is the relative decrease from the control value, in per cent. A higher inhibition goes with strong suppression.

One data set has as its target T1, DAT (Homo sapiens, UniProt Q01959).
T1 construct: from tissue; host or cells: striatum of healthy male volunteers, in vivo PET
The following applies: cited from earlier work.

Data set [1] concerns the target T2, Transporter, Dopamine (DAT) (Homo sapiens, UniProt Q01959).
T2 construct: host or cells: CHO-S cells
The note with it: radioligand, Historical Values; cited from earlier work.

Data set [2] addresses T3, Transporter, Norepinephrine (NET) (Homo sapiens, UniProt P23975).
T3 construct: host or cells: MDCK cells
The following applies: radioligand, Historical Values; cited from earlier work.

For data set [3], the target named is T2, Transporter, Dopamine (DAT). Briefly: Radioligand binding, Transporter, Dopamine (DAT) (Eurofin Discovery 220320). The following applies: for DAT, %inhibition 10 nM: 10 nM compound; for inhibition at 0.1 µM / DAT, %inhibition 100 nM: 100 nM compound.
The target in data set [4] is T3, Transporter, Norepinephrine (NET). The data set can be described thus: Radioligand binding, Transporter, Norepinephrine (NET) (Eurofin Discovery 204410).
Data set [5] has as its target T4, MCHR1 (Homo sapiens, UniProt Q99705). Also noted: host or cells: CHO-K1 cells. The following applies: radioligand, Historical Values; cited from earlier work.
Target sequence in this assay (Q99705 whole entry): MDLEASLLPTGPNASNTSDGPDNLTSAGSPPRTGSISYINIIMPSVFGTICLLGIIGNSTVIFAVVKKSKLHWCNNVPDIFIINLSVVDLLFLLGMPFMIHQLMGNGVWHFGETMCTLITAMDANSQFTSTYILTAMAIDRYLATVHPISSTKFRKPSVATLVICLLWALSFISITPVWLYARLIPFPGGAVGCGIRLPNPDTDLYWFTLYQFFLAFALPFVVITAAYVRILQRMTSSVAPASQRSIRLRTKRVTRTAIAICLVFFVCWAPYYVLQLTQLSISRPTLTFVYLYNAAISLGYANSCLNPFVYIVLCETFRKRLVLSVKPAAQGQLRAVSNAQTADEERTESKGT
The target in data set [6] is T4, MCHR1. The data set can be described thus: MCHR1 pharmacology of the N-acetyl metabolite. From the text: By substituting the hydrogens with deuterium on the carbon(s) adjacent to the nitrogen which is acetylated (see for example, Examples 5 to 7), acetylation process can be slowed down to reduce the formation of this metabolite.
Target sequence in this assay (Q99705 whole entry, species assumed): as the sequence (Q99705 whole entry) above
The next data set relates to PWS patients. The following applies: standard mg/day dosing, cited from earlier work.
The target in a further data set is NET (Homo sapiens, UniProt P23975). The following applies: at efficacious doses; cited from earlier work.
Chain of NET (P23975 whole entry): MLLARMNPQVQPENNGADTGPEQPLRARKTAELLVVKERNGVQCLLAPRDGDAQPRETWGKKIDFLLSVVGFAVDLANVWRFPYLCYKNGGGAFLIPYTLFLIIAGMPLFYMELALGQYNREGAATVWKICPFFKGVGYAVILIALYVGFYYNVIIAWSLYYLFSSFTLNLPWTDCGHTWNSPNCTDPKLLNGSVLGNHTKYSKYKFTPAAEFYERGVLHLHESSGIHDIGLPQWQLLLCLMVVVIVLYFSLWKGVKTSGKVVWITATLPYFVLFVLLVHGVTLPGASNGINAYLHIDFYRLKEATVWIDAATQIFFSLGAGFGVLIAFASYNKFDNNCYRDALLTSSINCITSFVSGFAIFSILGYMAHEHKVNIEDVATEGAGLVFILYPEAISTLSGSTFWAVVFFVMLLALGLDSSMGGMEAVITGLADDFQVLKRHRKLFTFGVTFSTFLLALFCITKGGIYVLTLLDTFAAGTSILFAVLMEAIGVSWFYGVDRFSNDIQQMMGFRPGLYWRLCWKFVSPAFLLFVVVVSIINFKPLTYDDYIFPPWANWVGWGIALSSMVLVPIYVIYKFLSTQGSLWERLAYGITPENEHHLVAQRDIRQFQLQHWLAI

Read-outs that look alike come from different tables or passages of the source.

T2 sequence (Q01959 whole entry): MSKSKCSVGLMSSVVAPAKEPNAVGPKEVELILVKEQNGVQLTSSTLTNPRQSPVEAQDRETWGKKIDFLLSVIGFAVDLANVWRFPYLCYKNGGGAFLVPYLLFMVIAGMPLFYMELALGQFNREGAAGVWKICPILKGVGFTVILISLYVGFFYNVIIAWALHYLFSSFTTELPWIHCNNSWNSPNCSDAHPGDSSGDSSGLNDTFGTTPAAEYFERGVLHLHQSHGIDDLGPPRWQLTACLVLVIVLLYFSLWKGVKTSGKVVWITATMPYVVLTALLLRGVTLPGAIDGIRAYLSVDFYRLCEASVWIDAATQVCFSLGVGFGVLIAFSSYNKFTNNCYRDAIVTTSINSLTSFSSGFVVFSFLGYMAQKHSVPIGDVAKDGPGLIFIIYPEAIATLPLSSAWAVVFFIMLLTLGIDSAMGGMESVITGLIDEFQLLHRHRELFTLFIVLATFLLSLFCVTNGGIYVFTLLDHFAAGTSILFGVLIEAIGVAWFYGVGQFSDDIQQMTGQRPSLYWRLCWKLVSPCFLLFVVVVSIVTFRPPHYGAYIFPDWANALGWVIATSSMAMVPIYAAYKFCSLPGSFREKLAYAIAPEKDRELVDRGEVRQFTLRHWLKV
T1 sequence (Q01959 whole entry): as above
T3 sequence (P23975 whole entry): as the sequence (P23975 whole entry) above

Regarding `COC(=O)C(c1ccccc1)C1CCCCN1` (centres unmarked) [Methylphenidate], the “Highest Occupancy DAT” value on DAT (at efficacious doses) is listed as 74% (Methylphenidate). Also, the DAT occupancy on DAT (at various approved doses) is 40-74%.
Turning to `COC(=O)[C@H]1[C@@H](c2ccc(I)cc2)C[C@@H]2CC[C@H]1N2C` [[^125I] RTI-55], the dissociation constant Kd in data set [1] was 0.58 nM; in data set [2], 24 nM.
As to `[2H]C1([2H])NCC(c2ccc(Cl)c(Cl)c2)c2ccc(-c3ccc4ncnn4c3)cc21` (single isomer, unassigned) [Compound 12A, 7-([1,2,4]triazolo[1,5-a]pyridin-6-yl)-4-(3,4-dichlorophenyl)-1,2,3,4-tetrahydroisoquinoline-1,1-d2], in data set [3], the “DAT, %inhibition 10 nM” value was 53% and the inhibition at 0.1 µM was 92%.
For the compound `CC(NC(C)(C)C)C(=O)c1cccc(Cl)c1` (centres unmarked) [Bupropion], the “Lowest Occupancy DAT” value at DAT (at efficacious doses) is recorded as 14% (Bupropion). Moreover, on DAT (at various approved doses), the DAT occupancy was 14-26%.
On to `[2H]C1([2H])NC([2H])([2H])C([2H])(c2ccc(Cl)c(Cl)c2)c2ccc(-c3ccc4ncnn4c3)cc21` (single isomer, unassigned) [Compound 8B, 7-([1,2,4]triazolo[1,5-a]pyridin-6-yl)-4-(3,4-dichlorophenyl)-1,2,3,4-tetrahydroisoquinoline-1,1,3,3,4-d5], for which, in data set [3], the “DAT, %inhibition 10 nM” value was found to be 4% and the “DAT, %inhibition 100 nM” value is listed as 75%. Moreover, in data set [4] (10 nM compound), the “NET, %inhibition 10 nM” value came to 37%. Moreover, the “NET, %inhibition 100 nM” value in data set [4] (100 nM compound) is on record as 71%.
Turning to [^125I] Tyr-S36057, at MCHR1 [5], the Kd was 0.1 nM.
As to `CC(=O)N1CCc2c(c3ccc(-n4ccc(OCc5ccc(F)cn5)cc4=O)cc3n2C)C1` [1-(2-acetyl-5-methyl-2,3,4,5-tetrahydro-1H-pyrido[4,3-b]indol-7-yl)-4-((5-fluoropyridin-2-yl)methoxy)pyridin-2(1H)-one], the “contribution to MCHR1 antagonism” value on MCHR1 [6] is “does not contribute to the pharmacology of MCHR1 antagonism”.
In the case of `CCOC[C@@H]1[C@@H](c2ccc(Cl)c(Cl)c2)C[C@@H]2CC[C@H]1N2C` [tesofensine], in the data set with PWS patients (PWS patients with the appropriate plasma drug level), the hyperphagia entry is reported as “controlled completely”. The “patients with plasma drug levels exceeding the safety levels who discontinued due to adverse events” value with PWS patients (PWS patients) was “⅔”. The efficacy entry in the data set on PWS patients (lowering the dosing for all patients) is “no efficacy”. The DAT occupancy on DAT (suggested as the optimal weight loss doses) was 50%-70%.
`COc1ccc(C(CN(C)C)C2(O)CCCCC2)cc1` (centres unmarked) [Venlafaxine]: at NET, the “Highest Occupancy NET” value is listed as 61% (Venlafaxine), the “Lowest Occupancy NET” value was 8% (Venlafaxine) and the NET occupancies is listed as 8-61%.
Take `NC(=O)C[S+]([O-])C(c1ccccc1)c1ccccc1` (centres unmarked) [modafinil]: the DAT occupancy on DAT (at various approved doses) is 51-57%.
Turning to `[2H]C1([2H])NCc2cc(-c3ccc4ncnn4c3)ccc2C1([2H])c1ccc(Cl)c(Cl)c1` (single isomer, unassigned) [Compound 16A, 7-([1,2,4]triazolo[1,5-a]pyridin-6-yl)-4-(3,4-dichlorophenyl)-1,2,3,4-tetrahydroisoquinoline-3,3,4-d3], in data set [3], the “DAT, %inhibition 10 nM” value stood at 47% and the inhibition at 0.1 µM worked out at 91%. For the same compound, the inhibition at 0.01 µM in data set [4] (10 nM compound) worked out at 38%. The inhibition at 0.1 µM in [4] (100 nM compound) turned out to be 83%.
As to `[2H]C1([2H])NCC(c2ccc(Cl)c(Cl)c2)c2ccc(-c3ccc4ncnn4c3)cc21` (single isomer, unassigned) [Compound 12B, 7-([1,2,4]triazolo[1,5-a]pyridin-6-yl)-4-(3,4-dichlorophenyl)-1,2,3,4-tetrahydroisoquinoline-1,1-d2], in data set [3], the “DAT, %inhibition 10 nM” value came out at 0% and the “DAT, %inhibition 100 nM” value was found to be 74%. In addition, the “NET, %inhibition 10 nM” value in [4] (10 nM compound) was found to be 44%. In addition, the “NET, %inhibition 100 nM” value in [4] (100 nM compound) is 74%.
Regarding `[2H]C1([2H])NC([2H])([2H])C([2H])(c2ccc(Cl)c(Cl)c2)c2ccc(-c3ccc4ncnn4c3)cc21` (single isomer, unassigned) [Compound 8A, 7-([1,2,4]triazolo[1,5-a]pyridin-6-yl)-4-(3,4-dichlorophenyl)-1,2,3,4-tetrahydroisoquinoline-1,1,3,3,4-d5], in data set [3], the “DAT, %inhibition 10 nM” value worked out at 44%.
On the same count and under the same terms, to `[2H]C1([2H])NCc2cc(-c3ccc4ncnn4c3)ccc2C1([2H])c1ccc(Cl)c(Cl)c1` (single isomer, unassigned) [Compound 16B, 7-([1,2,4]triazolo[1,5-a]pyridin-6-yl)-4-(3,4-dichlorophenyl)-1,2,3,4-tetrahydroisoquinoline-3,3,4-d3] belongs -2%.
